Columns and labels:
[1] = Measurement of Log P values by HPLC on reversed phase columns (EEC directive 79/831 Annex V.A8); type: physicochemical
Method: A-1.1. Measurement of Log P Values
Measurement of Log P values as provided herein was performed according to EEC directive 79/831 Annex V.A8 by HPLC (High Performance Liquid Chromatography) on reversed phase columns with the following methods:
^[a] Log P value is determined by measurement of LC-UV, in an acidic range, with 0.1% formic acid in water and acetonitrile as eluent (linear gradient from 10% acetonitrile to 95% acetonitrile).
^[b] Log P value is determined by measurement of LC-UV, in a neutral range, with 0.001 molar ammonium acetate solution in water and acetonitrile as eluent (linear gradient from 10% acetonitrile to 95% acetonitrile).
^[c] Log P value is determined by measurement of LC-UV, in an acidic range, with 0.1% phosphoric acid and acetonitrile as eluent (linear gradient from 10% acetonitrile to 95% acetonitrile).
If more than one Log P value is available within the same method, all the values are given and separated by “+”. […]

[2] = system: Colletotrichum lindemuthianum; test: B-8. Colletotrichum lindemuthianum in vitro cell test; type: cell-based; details: 144 h, 20 ppm of active ingredient, 6 days incubation, liquid culture, absorbance, read-out: efficacy (inhibition of fungal growth)
Method: B-8. Colletotrichum lindemuthianum In Vitro Cell Test [table] Fungicides were solubilized in DMSO and the solution used to prepare the required range of concentrations. The final concentration of DMSO used in the assay was ≤1%. A spore suspension of C. lindemuthianum was prepared and diluted to the desired spore density. Fungicides were evaluated for their ability to inhibit spores germination and mycelium growth in liquid culture assay. The compounds were added in the desired concentration to the culture medium with spores. After 6 days incubation, fungi-toxicity of compounds was determined by spectrometric measurement of mycelium growth. Inhibition of fungal growth was determined by comparing the absorbance values in wells containing the fungicides with the absorbance in control wells without fungicides.

[3] = reversed phase HPLC column, method [a]: LC-UV, acidic range, 0.1% formic acid in water and acetonitrile as eluent
[4] = method [a]: LC-UV, acidic range, 0.1% formic acid in water and acetonitrile as eluent
[5] = method [b]: LC-UV, neutral range, 0.001 molar ammonium acetate solution in water and acetonitrile as eluent
[6] = reversed phase HPLC column, method [b]: LC-UV, neutral range, 0.001 molar ammonium acetate solution in water and acetonitrile as eluent

| Structure (SMILES) | chromatographic logP [1, 3] | chromatographic logP [1, 4] | other results |
| --- | --- | --- | --- |
| O=C(O)c1c(Oc2cccc(C(F)(F)F)c2)nnc2cnccc12 [1-05] | 2.04 | – | – |
| COC(=O)c1c(Oc2cccc(C#N)c2)nnc2ccccc12 [1-08] | 2.64 | – | – |
| Cc1cccc(Oc2nnc3ccccc3c2C(=O)O)c1 [1-04] | – | 1.92 | – |
| C=Cc1cccc(Oc2cnc3ccccc3c2C(=O)O)c1 [1-50] | – | 2.41 | – |
| O=C(O)c1c(Oc2cccc(C3CC3)c2F)nnc2ccccc12 [1-18, 3-(3-cyclopropyl-2-fluoro-phenoxy)cinnoline-4-carboxylic acid] | – | 2.23 | – |
| O=C(O)c1c(Oc2cccc(C(F)(F)F)c2)cnc2ccccc12 [1-07, 3-(3-(trifluoromethyl)phenoxy)quinoline-4-carboxylic acid] | – | 2.57 | – |
| O=C(O)c1c(Oc2cccc(C(F)(F)F)c2)nnc2ccccc12 [1-01] | – | 2.27 | – |
| O=C(O)c1c(Oc2cccc(Cl)c2)nnc2ccccc12 [1-03] | – | 2.07 | – |
| CCOC(=O)c1c(Oc2cccc(Br)c2F)nnc2c1CCCC2 [1-21] | – | 3.85 | – |
| O=C(O)c1c(Oc2cccc(C3CC3)c2F)cnc2ccccc12 [1-51] | – | 2.71 | – |
| N#Cc1cccc(Oc2nnc3ccccc3c2C(=O)O)c1 [1-10] | 1.56 | – | – |
| O=C(O)c1c(Oc2cccc(Br)c2F)nnc2c1CCCC2 [1-27] | – | 1.55 | chromatographic logP [1, 5]: 0.45 |
| Cc1ccc2c(C(=O)O)c(Oc3cccc(C(F)(F)F)c3)nnc2c1 [1-12, 7-methyl-3-(3-(trifluoromethyl)phenoxy)cinnoline-4-carboxylic acid] | 2.74 | – | – |
| O=C(O)c1c(Oc2cccc(C(F)F)c2)nnc2ccccc12 [1-11] | – | 1.87 | – |
| O=C(O)c1c(Oc2ccc(Cl)cc2)nnc2ccccc12 [1-16] | 2.12 | – | – |
| COC(=O)c1c(Oc2cccc(C(F)(F)F)c2)cnc2ccccc12 [1-13, methyl 3-(3-(trifluoromethyl)phenoxy)quinoline-4-carboxylate] | – | 3.8 | – |
| C#Cc1cccc(Oc2cnc3ccccc3c2C(=O)O)c1 [1-49] | – | 2.2 | – |
| O=C(O)c1c(Oc2cncc(C(F)(F)F)c2)nnc2ccccc12 [1-06] | 1.83 | – | – |
| O=C(O)c1c(Oc2cccc(Cl)c2F)nnc2c1CCCC2 [1-29, 3-(3-chloro-2-fluoro-phenoxy)-5,6,7,8-tetrahydrocinnoline-4-carboxylic acid] | – | 1.46 | chromatographic logP [1, 5]: 0.42 |
| CCOC(=O)c1c(Oc2cccc(C(F)(F)F)c2)nnc2c1CCCC2 [1-22] | – | 3.9 | – |
| COC(=O)c1c(Oc2cccc(C(F)F)c2)nnc2ccccc12 [1-09] | – | 3.06 | – |
| O=C(O)c1c(Oc2cccc(Br)c2F)cnc2ccccc12 [1-39] | – | 2.59 | – |
| O=C(O)c1c(Oc2cccc(C(F)(F)F)c2)cnc2ccoc12 [1-15, 6-[3-(trifluoromethyl)phenoxy]furo[3,2-b]pyridine-7-carboxylic acid] | – | 2.08 | – |
| O=C(O)c1c(Oc2cccc(C(F)(F)F)c2)nnc2c1CCCC2 [1-31] | – | 1.6 | chromatographic logP [1, 5]: 0.55 |
| CCOC(=O)c1c(Oc2cccc(Cl)c2F)nnc2c1CCCC2 [1-26, ethyl 3-(3-chloro-2-fluoro-phenoxy)-5,6,7,8-tetrahydrocinnoline-4-carboxylate] | – | 3.76 | chromatographic logP [1, 5]: 3.56 |
| CC(C)OC(=O)c1c(Oc2cccc(Cl)c2)nnc2ccccc12 [1-14] | – | 4.19 | – |
| COC(=O)c1c(Oc2cccc(C(F)(F)F)c2)nnc2ccccc12 [1-02] | – | 3.62 | – |
| O=C(O)c1c(Oc2cccc(C(F)F)c2)cnc2ccccc12 [1-41] | – | 2.1 | – |
| CCOC(=O)c1c(Oc2cccc(C(F)F)c2)nnc2c1CCCC2 [1-23] | – | 3.37 | chromatographic logP [1, 5]: 3.19 |
| O=C(O)c1c(Oc2cccc(C(F)F)c2)nnc2c1CCCC2 [1-32] | – | 1.18 | – |

Second part, led by results:

| chromatographic logP [1, 3] | Structure (SMILES) | chromatographic logP [1, 4] | other results |
| --- | --- | --- | --- |
| 2.36 | O=C(O)c1c(Oc2cccc(C3CC3)c2)nnc2ccccc12 [1-36] | – | – |
| 2.59 | O=C(O)c1c(Oc2cccc(C3CC3)c2)cnc2ccccc12 [1-45] | – | – |
| 2.62 | O=C(O)c1c(Oc2cccc(C(F)(F)F)c2)nnc2cc(F)ccc12 [1-38] | – | – |
| 2.48 | O=C(O)c1c(Oc2cccc(Br)c2)cnc2ccccc12 [1-47] | – | – |
| 2.18 | Cc1cccc(Oc2cnc3ccccc3c2C(=O)O)c1 [1-43] | – | – |
| 4.23 | Cc1ccc(C(F)(F)CNC(=O)c2c(Oc3ccc(Cl)cc3)nnc3ccccc23)c(C)c1 [I-200] | – | – |
| 3.74 | O=C(NCC(F)(F)c1ccc(Cl)cn1)c1c(Oc2cccc(C(F)(F)F)c2)cnc2ccccc12 [I-038] | – | inhibition at 20 ppm [2]: 70 to 79% |
| 2.56 | Cc1ccc(C(F)(F)CNC(=O)c2c(Br)cnc3nccnc23)c(C)c1 [3-01] | – | – |
| 3.92 | C[C@H](NC(=O)c1c(Oc2ccc(Cl)cc2)nnc2ccccc12)c1cccc(C(F)(F)F)c1 (racemic) [I-204] | – | – |
| 4.38 | CCOC(=O)c1c(Oc2cccc(C(F)(F)F)c2)nnc2cc(C)ccc12 [1-52] | – | – |
| 2.43 | O=C(O)c1c(Oc2cccc(Br)c2F)nnc2ccccc12 [1-35] | – | – |
| 3.95 | CCOC(=O)c1c(Oc2cccc(C(F)(F)F)c2)nnc2ccccc12 [1-42] | – | – |
| 1.28 | O=C(O)c1c(Oc2cccc(Cl)c2)nnc2c1CCCC2 [1-28] | – | – |
| 3.23 | Cc1ccc(C(F)(F)CNC(=O)c2c(Cl)nnc3ccccc23)c(C)c1 [3-02] | – | – |
| 3.51 | CCOC(=O)c1c(Oc2cccc(C(F)(F)F)c2)nnc2cnccc12 [1-54] | – | – |
| 4.24 | CCON(Cc1ccccc1)C(=O)c1c(Oc2cccc(C(F)(F)F)c2)nnc2ccccc12 [I-247] | – | – |
| 3.72 | CCOC(=O)c1c(Oc2cccc(Cl)c2)nnc2c1CCCC2 [1-24] | – | – |
| 2.39 | O=C(O)c1c(Oc2cccc(C(F)(F)F)c2)nnc2ccsc12 [1-57] | – | – |
| 4.4 | CCOC(=O)c1c(Oc2cccc(C(F)(F)F)c2)nnc2c1CCC2(C)C [1-44] | – | – |

| chromatographic logP [1, 3] | Structure (SMILES) | chromatographic logP [1, 4] | other results |
| --- | --- | --- | --- |
| 4.02 | CCOC(=O)c1c(Oc2cccc(Br)c2F)nnc2ccccc12 [1-37] | – | – |
| 1.53 | O=C(O)c1c(Oc2cccc(Cl)c2F)nnc2c1CCC2 [1-56] | – | – |
| 4.16 | CCOC(=O)c1c(Oc2cccc(C(F)(F)F)c2)nnc2cc(F)ccc12 [1-58] | – | – |
| 1.38 | O=C(O)c1c(Oc2cccc(C(F)(F)F)c2)nnc2c1COCC2 [1-33] | – | – |
| 1.72 | O=C(O)c1c(Oc2cccc(C3CC3)c2F)nnc2c1CCCC2 [1-30] | – | chromatographic logP [1, 6]: 0.6 |
| 3.79 | CCOC(=O)c1c(Oc2cccc(C3CC3)c2F)nnc2c1CCCC2 [1-25] | – | – |
| 3.92 | O=C(N/C=C/c1ccccc1)c1c(Oc2cccc(C(F)(F)F)c2)cnc2ccccc12 [I-217] | – | – |
| 1.31 | O=C(O)c1c(Oc2cccc(C(F)(F)F)c2)nnc2c1OCCO2 [1-17, 3-[3-(trifluoromethyl)phenoxy]-6,7-dihydro-[1,4]dioxino[2,3-c]pyridazine-4-carboxylic acid] | – | – |
| 3.37 | CCOC(=O)c1c(Oc2cccc(Cl)c2F)nnc2c1CCC2 [1-40] | – | – |
| 2.02 | CC1(C)COc2nnc(Oc3cccc(C(F)(F)F)c3)c(C(=O)O)c2OC1 [1-20] | – | – |
| 5.03 | CON(CCc1ccc(Cl)cc1Cl)C(=O)c1c(Oc2cccc(C(F)(F)F)c2)nnc2ccccc12 [I-190] | – | – |
| 1.82 | CC1(C)COc2c(nnc(Oc3cccc(C(F)(F)F)c3)c2C(=O)O)O1 [1-19] | – | – |
| 2.84 | N#Cc1cccc(Oc2nnc3ccccc3c2C(=O)NCC(F)(F)c2ccc(Cl)cn2)c1 [I-248] | – | chromatographic logP [1, 6]: 2.94; inhibition at 20 ppm [2]: 70 to 79% |
| 2.49 | CC1(C)CCc2c1nnc(Oc1cccc(C(F)(F)F)c1)c2C(=O)O [1-46] | – | – |
| 4.81 | CCOC(=O)c1c(Oc2cccc(C(F)(F)F)c2)nnc2cc(C3CC3)ccc12 [1-53] | – | – |
| 3.34 | COC(=O)c1c(Oc2cccc(C(F)(F)F)c2)nnc2ccsc12 [1-55] | – | – |
| 3.21 | O=C(O)c1c(Oc2cccc(C(F)(F)F)c2)nnc2cc(C3CC3)ccc12 [1-34] | – | – |
| 2.2 | O=C(O)c1c(Oc2cccc(Br)c2)nnc2ccccc12 [1-48] | – | – |

Reference: US20230192617A1, “AZABICYCLIC(THIO)AMIDES AS FUNGICIDAL COMPOUNDS” (Bayer CropScience Aktiengesellschaft, priority 2020, published 2023)
